From PubChem BioAssay (NCI)
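In this assay, cells in 96-well plates receive the compound at five concentrations for 48 hours. Endpoints are linearly interpolated between the surrounding concentrations. GI50: concentration for 50% inhibition of growth. TGI: concentration producing complete growth inhibition.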 Where a SMILES comes first, the peptide text is derived from it. [ ]: non-standard residue; d: D form. The star is where a group is joined. NMeF = CN[CH](Cc1ccccc1)C(=O)O; NMeV = CN[CH](C(=O)O)C(C)C; Boc = CC(C)(C)OC(=O)*; OBn = c1ccc(CO*)cc1

How the values were obtained:
Experiment in all cases: NCI anticancer screen, dose series, 48 h
[1] = system: HCC-2998 colon
[2] = system: HOP-62 NSCLC
[3] = system: NCI-H460 lung
[4] = system: OVCAR-3 ovarian
[5] = system: OVCAR-4 ovarian
[6] = system: SF-295 CNS
[7] = system: SK-OV-3 ovarian
[8] = system: SN12C renal
[9] = system: SR leukemia
[10] = system: DU-145 prostate

Row | SMILES | TGI [1] [µM] | TGI [2] [µM] | TGI [3] [µM] | TGI [4] [µM] | TGI [5] [µM] | TGI [6] [µM] | TGI [7] [µM] | TGI [8] [µM] | TGI [9] [µM] | GI50 [10] [µM] | TGI [10] [µM] | GI50 [1] [µM] | GI50 [2] [µM] | GI50 [3] [µM] | GI50 [4] [µM] | GI50 [5] [µM] | GI50 [6] [µM] | GI50 [7] [µM] | GI50 [8] [µM] | GI50 [9] [µM]
1 | C#CCOCn1cnc2ncnc(Cl)c21 | > 100 | > 100 | > 100 | > 100 | > 100 | > 100 | > 100 | > 100 | > 100 | – | – | – | – | – | – | – | – | – | – | –
2 | COc1cc(C2[C@H]3C(=O)N(c4ccc(Cc5ccc(N6C(=O)[C@@H]7ON(c8ccccc8)C(c8cc(OC)c(OC)c(OC)c8)[C@@H]7C6=O)cc5)cc4)C(=O)[C@H]3ON2c2ccccc2)cc(OC)c1OC (stereo partly drawn) | > 100 | > 100 | > 100 | > 100 | > 100 | > 100 | > 100 | > 100 | > 100 | – | – | – | – | – | – | – | – | – | – | –
3 | Clc1ccccc1-c1nc2ccccc2[nH]1 | > 100 | > 100 | > 100 | > 100 | > 100 | > 100 | > 100 | > 100 | > 100 | > 100 | > 100 | > 100 | > 100 | > 100 | > 100 | > 100 | 43.3 | > 100 | > 100 | > 100
4 | NC1=CC(=O)C(=O)c2cccnc21 | 28.4 | 7.15 | 7.38 | 29.4 | 8.15 | 10.3 | 41.2 | 13.4 | – | 4.94 | 16.3 | 14.7 | 2.58 | 2.63 | 12.9 | 2.59 | 2.48 | 18.8 | 3.11 | –
5 | CSc1nc2c(nc(N)n2C2OCC(O)C(O)C2O)c(=O)[nH]1 (stereo not drawn) | > 100 | > 100 | > 100 | > 100 | > 100 | > 100 | > 100 | > 100 | > 100 | – | – | – | – | – | – | – | – | – | – | –
6 | CC(=O)Nc1ccc(-c2nnc(SCC(=O)Nc3ccccc3[N+](=O)[O-])o2)cc1 | – | > 100 | > 100 | > 100 | > 100 | > 100 | > 100 | > 100 | > 100 | – | – | – | – | – | – | – | – | – | – | –
7 | COC(=O)c1[nH]nc(-c2ccccc2)c1N1CCCCC1 | – | 57 | > 100 | > 100 | > 100 | > 100 | > 100 | 41.5 | > 100 | 30.5 | > 100 | – | 22 | 38.1 | 40.7 | 86.7 | 45.7 | 36.4 | 15.5 | 46.5
8 | COc1ccc(/C=C/c2nc(N3CCOCC3)c3cc(F)c(F)cc3n2)cc1OC | > 100 | > 100 | > 100 | > 100 | > 100 | > 100 | > 100 | > 100 | – | 8.79 | > 100 | 7.49 | 50.7 | 5.86 | 6.08 | 1.43 | 3.9 | 11 | 5.36 | –
9 | CCCCNC(=S)/N=C/c1c(O)c2ccccc2oc1=O | > 100 | > 100 | > 100 | > 100 | > 100 | > 100 | > 100 | > 100 | – | – | > 100 | – | – | – | – | – | – | – | – | –
10 | O=C1c2cnccc2Cc2cccc3c2N1c1ccccc1S3 | 41 | 57.2 | – | 44.5 | 68.4 | 63.2 | – | > 100 | 34.8 | – | – | – | – | – | – | – | – | – | – | –
11 | COc1cc(NCC(C#N)C#N)ccc1N=Nc1ccc([N+](=O)[O-])cc1 | > 100 | > 100 | > 100 | > 100 | > 100 | > 100 | > 100 | > 100 | > 100 | – | – | – | – | – | – | – | – | – | – | –
12 | O=C1C2C(C(=O)[N]1[Hg][c]1ccccc1)C1(Cl)C(Cl)=C(Cl)C2(Cl)C1(Cl)Cl (stereo not drawn) | 4.1 | 19.2 | 12.4 | 0.467 | 4.15 | 36 | 5.17 | – | 3.46 | 1.66 | 3.29 | 2.12 | 6.21 | 2.61 | 0.229 | 1.09 | 12.4 | 1.87 | – | 0.41
13 | Cc1sc2nc(-c3ccccn3)c(/C=N/N=C(N)N)n2c1C | – | 16.9 | 36.2 | 15.6 | 13.3 | 16.9 | 20.1 | 28.9 | > 100 | 4.88 | 12.6 | – | 8.06 | 13.6 | 8.03 | 5.15 | 8.77 | 9.14 | 14.4 | > 100
14 | CCC[CH2][Sn]1([CH2]CCC)[O]C(=O)C[S]1 | 3.97 | 18 | 16.9 | 3.03 | 4.67 | 13 | 14 | 5.09 | 7.09 | – | – | 1.83 | 6.86 | 4.09 | 1.57 | 2.16 | 3.61 | 4.63 | 1.91 | 1.13
15 | N/C(=N\OC(=O)NC(Cl)=C(Cl)Cl)c1cc(C(F)(F)F)cc(C(F)(F)F)c1 | 25.8 | 34.2 | 36.8 | 28.6 | – | 34.8 | 84.4 | 60.8 | 26.2 | – | 27 | – | – | – | – | – | – | – | – | –
16 | O=C(/C=C/c1cccs1)c1ccsc1 | 34.9 | > 100 | 60.4 | – | > 100 | > 100 | > 100 | 52.6 | 38.5 | – | > 100 | – | – | – | – | – | – | – | – | –
17 | CC(C)C(NC(=O)OC(C)(C)C)C(=O)N(C)C(Cc1ccccc1)C(=O)N(C)C(C(=O)N(C)C(C(=O)OCc1ccccc1)C(C)C)C(C)C (stereo not drawn) (Boc-V[NMeF][NMeV][NMeV]-OBn; configuration not given here) | > 100 | > 100 | > 100 | > 100 | – | > 100 | – | > 100 | > 100 | – | – | – | – | – | – | – | – | – | – | –
